Laboratory results published in PMC8019157 (Antiviral research, 2021).
Where two headings read alike, the source gives them in different places.

Legend:
SERCA1 [1] = molecular target: T1, SERCA1 (Oryctolagus cuniculus, UniProt P04191); assay: ATP-dependent ^45Ca^2+ accumulation by longitudinal SR vesicles; type: biochemical, rabbit
SERCA1 [2] = molecular target: T1, SERCA1; assay: SERCA1 ATPase activity; type: biochemical, rabbit; details: with and without A23187
RyR1 = RyR1 (Oryctolagus cuniculus, UniProt P11716); assay: Lipid bilayer single channel recordings of purified RyR1; type: biochemical, rabbit
Chain of RyR1 (P11716 whole entry): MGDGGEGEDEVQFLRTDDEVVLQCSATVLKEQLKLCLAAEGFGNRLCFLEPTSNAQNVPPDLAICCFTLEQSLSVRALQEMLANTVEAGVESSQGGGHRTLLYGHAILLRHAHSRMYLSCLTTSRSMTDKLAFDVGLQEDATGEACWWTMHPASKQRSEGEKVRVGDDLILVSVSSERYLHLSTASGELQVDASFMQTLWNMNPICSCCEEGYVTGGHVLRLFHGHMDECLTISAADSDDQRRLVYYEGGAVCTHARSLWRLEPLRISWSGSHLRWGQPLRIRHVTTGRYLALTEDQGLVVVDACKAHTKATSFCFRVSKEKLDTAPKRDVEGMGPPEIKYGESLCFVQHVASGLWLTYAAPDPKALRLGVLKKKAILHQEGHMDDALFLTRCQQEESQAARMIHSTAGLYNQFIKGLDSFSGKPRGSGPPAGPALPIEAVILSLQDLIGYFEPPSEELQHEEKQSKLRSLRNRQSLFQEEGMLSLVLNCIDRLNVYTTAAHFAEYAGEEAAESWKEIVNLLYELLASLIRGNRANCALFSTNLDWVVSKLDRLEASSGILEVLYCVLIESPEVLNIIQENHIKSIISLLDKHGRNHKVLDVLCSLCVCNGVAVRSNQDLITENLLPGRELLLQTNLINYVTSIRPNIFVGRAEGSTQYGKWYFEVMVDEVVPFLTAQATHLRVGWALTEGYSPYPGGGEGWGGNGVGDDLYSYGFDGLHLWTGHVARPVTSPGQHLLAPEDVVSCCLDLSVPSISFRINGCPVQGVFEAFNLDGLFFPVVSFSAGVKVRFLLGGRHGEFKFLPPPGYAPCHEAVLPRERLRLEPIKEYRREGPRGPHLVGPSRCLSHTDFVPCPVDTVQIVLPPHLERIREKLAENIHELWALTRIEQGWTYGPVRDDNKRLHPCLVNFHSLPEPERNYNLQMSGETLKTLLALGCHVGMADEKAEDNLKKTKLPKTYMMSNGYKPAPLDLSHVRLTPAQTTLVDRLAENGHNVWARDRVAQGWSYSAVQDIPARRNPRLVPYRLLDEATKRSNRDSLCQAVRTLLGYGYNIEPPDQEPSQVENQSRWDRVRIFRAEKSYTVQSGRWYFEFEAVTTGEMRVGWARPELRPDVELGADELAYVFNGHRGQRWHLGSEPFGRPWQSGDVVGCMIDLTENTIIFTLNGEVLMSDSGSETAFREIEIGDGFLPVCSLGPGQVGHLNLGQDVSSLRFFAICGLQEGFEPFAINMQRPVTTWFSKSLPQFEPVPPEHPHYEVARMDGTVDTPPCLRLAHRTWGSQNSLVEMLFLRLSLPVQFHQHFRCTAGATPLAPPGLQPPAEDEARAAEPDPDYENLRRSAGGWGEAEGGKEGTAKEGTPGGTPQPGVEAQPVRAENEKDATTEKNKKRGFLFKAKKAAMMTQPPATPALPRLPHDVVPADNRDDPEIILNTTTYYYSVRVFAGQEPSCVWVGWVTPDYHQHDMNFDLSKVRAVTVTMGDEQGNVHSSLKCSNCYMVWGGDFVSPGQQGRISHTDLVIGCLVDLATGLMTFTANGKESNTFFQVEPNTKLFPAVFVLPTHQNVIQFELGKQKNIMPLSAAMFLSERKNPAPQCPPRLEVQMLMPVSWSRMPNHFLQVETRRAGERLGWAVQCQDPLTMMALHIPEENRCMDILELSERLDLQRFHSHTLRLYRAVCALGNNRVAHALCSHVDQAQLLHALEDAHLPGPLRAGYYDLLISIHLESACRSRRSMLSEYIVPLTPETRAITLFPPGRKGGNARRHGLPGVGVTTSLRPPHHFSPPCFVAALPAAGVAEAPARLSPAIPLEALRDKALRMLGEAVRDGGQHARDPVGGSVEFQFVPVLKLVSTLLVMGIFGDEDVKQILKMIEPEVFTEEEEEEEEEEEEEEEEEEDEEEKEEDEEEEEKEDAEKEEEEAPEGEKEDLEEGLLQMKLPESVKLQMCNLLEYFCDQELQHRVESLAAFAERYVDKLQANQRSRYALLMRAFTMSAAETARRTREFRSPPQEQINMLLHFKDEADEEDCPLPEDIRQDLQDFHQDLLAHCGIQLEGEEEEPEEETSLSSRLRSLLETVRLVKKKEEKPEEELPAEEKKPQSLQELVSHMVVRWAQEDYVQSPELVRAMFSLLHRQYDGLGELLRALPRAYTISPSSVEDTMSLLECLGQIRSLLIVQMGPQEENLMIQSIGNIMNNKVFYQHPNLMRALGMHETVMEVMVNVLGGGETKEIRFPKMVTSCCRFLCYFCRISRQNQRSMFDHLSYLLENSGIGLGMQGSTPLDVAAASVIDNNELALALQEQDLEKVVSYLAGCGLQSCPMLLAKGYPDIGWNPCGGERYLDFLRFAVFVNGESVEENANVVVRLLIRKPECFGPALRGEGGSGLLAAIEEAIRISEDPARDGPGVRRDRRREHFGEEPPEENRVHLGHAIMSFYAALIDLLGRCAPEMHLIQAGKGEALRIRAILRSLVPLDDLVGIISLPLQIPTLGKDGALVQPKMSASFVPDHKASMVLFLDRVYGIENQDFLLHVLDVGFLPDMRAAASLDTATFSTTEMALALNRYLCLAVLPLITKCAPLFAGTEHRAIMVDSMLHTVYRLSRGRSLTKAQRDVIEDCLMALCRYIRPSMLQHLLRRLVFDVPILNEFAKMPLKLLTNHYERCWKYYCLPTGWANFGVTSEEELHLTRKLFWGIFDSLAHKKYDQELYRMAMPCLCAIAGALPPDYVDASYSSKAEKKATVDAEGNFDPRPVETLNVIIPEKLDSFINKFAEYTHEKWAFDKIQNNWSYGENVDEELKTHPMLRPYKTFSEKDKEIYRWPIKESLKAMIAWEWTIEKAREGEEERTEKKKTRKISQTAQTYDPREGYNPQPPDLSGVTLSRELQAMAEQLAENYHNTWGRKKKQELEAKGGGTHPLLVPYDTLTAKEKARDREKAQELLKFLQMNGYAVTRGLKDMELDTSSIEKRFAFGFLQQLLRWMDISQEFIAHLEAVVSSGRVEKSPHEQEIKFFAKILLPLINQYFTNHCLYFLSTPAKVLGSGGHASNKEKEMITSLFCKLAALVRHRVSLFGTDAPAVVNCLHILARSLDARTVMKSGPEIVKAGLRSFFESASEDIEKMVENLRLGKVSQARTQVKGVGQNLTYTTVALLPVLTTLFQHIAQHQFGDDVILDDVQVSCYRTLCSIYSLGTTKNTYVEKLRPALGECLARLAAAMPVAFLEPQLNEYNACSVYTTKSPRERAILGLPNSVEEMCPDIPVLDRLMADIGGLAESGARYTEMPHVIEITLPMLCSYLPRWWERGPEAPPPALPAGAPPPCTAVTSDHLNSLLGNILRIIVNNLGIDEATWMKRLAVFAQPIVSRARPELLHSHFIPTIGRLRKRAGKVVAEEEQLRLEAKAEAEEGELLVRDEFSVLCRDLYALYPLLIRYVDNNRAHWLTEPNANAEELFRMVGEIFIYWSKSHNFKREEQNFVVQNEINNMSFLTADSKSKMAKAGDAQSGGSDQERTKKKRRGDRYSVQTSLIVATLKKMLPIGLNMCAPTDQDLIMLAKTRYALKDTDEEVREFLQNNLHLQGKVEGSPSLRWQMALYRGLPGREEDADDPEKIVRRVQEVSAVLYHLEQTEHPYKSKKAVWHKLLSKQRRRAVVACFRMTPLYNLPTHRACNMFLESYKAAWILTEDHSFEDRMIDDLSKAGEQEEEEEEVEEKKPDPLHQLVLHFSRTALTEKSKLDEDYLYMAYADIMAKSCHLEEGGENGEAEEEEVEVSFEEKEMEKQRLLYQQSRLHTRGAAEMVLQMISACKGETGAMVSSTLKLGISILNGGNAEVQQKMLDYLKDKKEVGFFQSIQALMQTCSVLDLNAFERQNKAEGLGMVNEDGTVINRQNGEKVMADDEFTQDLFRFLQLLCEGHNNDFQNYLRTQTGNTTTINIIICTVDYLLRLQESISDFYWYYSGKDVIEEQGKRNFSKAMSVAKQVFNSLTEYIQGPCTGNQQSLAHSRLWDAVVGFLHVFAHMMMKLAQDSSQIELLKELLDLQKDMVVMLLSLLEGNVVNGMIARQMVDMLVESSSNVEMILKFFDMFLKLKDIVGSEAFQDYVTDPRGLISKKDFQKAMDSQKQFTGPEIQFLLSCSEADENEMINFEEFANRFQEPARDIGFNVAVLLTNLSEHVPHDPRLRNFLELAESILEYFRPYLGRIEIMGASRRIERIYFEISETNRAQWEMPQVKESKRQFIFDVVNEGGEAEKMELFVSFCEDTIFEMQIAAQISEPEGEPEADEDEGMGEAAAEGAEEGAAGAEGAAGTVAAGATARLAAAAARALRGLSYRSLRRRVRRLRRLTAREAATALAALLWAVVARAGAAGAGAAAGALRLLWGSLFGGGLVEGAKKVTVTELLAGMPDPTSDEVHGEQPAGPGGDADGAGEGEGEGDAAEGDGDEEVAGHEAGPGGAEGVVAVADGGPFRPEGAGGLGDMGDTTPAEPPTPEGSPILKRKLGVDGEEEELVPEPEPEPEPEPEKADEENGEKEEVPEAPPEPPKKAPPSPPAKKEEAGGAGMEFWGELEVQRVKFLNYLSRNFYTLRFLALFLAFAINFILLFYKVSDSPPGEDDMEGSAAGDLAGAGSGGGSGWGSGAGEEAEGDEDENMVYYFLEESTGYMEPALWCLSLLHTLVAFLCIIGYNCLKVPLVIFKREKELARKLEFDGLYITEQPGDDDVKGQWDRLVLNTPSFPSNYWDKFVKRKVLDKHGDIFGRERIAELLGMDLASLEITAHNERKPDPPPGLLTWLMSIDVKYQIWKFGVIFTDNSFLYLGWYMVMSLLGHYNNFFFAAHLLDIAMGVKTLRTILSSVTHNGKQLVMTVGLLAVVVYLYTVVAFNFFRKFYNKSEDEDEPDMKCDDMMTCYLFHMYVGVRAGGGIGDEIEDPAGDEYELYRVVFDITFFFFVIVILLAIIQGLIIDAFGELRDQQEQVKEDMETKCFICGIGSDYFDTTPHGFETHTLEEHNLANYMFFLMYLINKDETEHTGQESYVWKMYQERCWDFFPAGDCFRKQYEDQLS

[3] = cited from earlier work; for Cmax: read-out: plasma Cmax
[4] = Drug dissolved in ethanol/water; type: physicochemical; details: room temperature (22 °C), HPLC
[5] = system: C2C12 skeletal muscle myotubes; assay: Live-cell Ca^2+ imaging; type: cell-based, Mouse
[6] = molecular target: rabbit skeletal muscle ryanodine receptor Ca^2+ release channel (RyR1) (Oryctolagus cuniculus, UniProt P11716); assay: [^3H]ryanodine binding/displacement assay with SR membrane vesicles
Chain of rabbit skeletal muscle ryanodine receptor Ca^2+ release channel (RyR1) (P11716 whole entry): as above

[7] = Atazanavir 1.56 μM cis, 3.3 μM cis Ca^2+
[8] = Atazanavir 3.12 μM cis, 3.3 μM cis Ca^2+
[9] = Atazanavir 6.78 μM cis, 3.3 μM cis Ca^2+
[10] = Atazanavir 20.00 μM cis, 3.3 μM cis Ca^2+
[11] = Atazanavir 30.00 μM cis, 3.3 μM cis Ca^2+
[12] = Atazanavir […] cis, 3.3 μM cis Ca^2+

For COC(=O)N[C@H](C(=O)N[C@@H](Cc1ccccc1)[C@@H](O)CN(Cc1ccc(-c2ccccn2)cc1)NC(=O)[C@@H](NC(=O)OC)C(C)(C)C)C(C)(C)C [ATV, atazanavir], which “effect on ATP-dependent Ca^2+ transport by SERCA1” value (SERCA1 [1]; 0 – 31.2 μM, 20 min at 37°C) is on record?
The value was “biphasic”.

What about the “effect on Ca^2+ accumulation via SERCA1” value (SERCA1 [1]; > 5 μM) of the same compound?
Its value is “inhibiting”.

What about the “effect on Ca^2+ accumulation via SERCA1” value (SERCA1 [1]; up to 5.0 μM) of the same compound?
The value was “potentiating”.

What about the “effect on ATPase activity of SERCA1” value (SERCA1 [2]; 0 – 20 μM, 20 min at 37°C) of the same compound?
The value was “biphasic”.

What about the “effect on ATPase activity of SERCA1” value (SERCA1 [2]; concentrations higher than 5.0 μM) of the same compound?
The value was “decreased the ATPase activity”.

What about the “effect on ATPase activity of SERCA1” value (SERCA1 [2]; concentrations of 0.25 and 5.0 μM) of the same compound?
The value was “potentiated”.

And the “increase in Po of RyR1” value (RyR1; 1.6 μM cis ATV, within 15 sec, 3.3 μM cis Ca^2+)?
Its value is 40%.

What about the “effect on conductance of RyR1” value (RyR1; 3.2 μM cis ATV) of the same compound?
Its value is “did not alter the conductance”.

And the “Po of RyR1” value (RyR1; 6.8 μM cis ATV)?
Its value is 0.92 ± 0.10.

And the “conductance of reduced conductance state R’1” value (RyR1; 6.8 μM cis ATV)?
The value was 532 ± 34 pS.

And the “current amplitude of RyR1 (reduced conductance state R’1)” value (RyR1; 6.8 μM cis ATV)?
The value was 74 % of maximum.

And the “dwell time in the opened state” value (RyR1; 6.8 μM cis ATV, ± 30 mV holding potential)?
Its value is > 25 ms.

And the “current amplitude of RyR1 (R’1)” value (RyR1; 20.0 μM and 30.0 μM cis ATV)?
Its value is 74 % of maximum.

And the “Closed- maximally opened transitions (Hz)” value (RyR1; [7])?
Its value is 789 ± 25 Hz.

And the “Dwell time closed state” value (RyR1; [7])?
The value was 1.97 ± 0.03 ms.

And the “Dwell time open state” value (RyR1; [7])?
Its value is 0.66 ± 0.02 ms.

And the “Po (+30 mV)” value (RyR1; [7])?
The value was 0.14 ± 0.01.

What about the “Closed- maximally opened transitions (Hz)” value (RyR1; [8]) of the same compound?
Its value is 1102 ±22 Hz.

What about the “Dwell time closed state” value (RyR1; [8]) of the same compound?
Its value is 0.62 ± 0.03 ms.

What about the “Dwell time open state” value (RyR1; [8]) of the same compound?
Its value is 2.83 ± 0.08 ms.

What about the “Po (+30 mV)” value (RyR1; [8]) of the same compound?
The value was 0.56 ± 0.03.

What about the “Closed- maximally opened transitions (Hz)” value (RyR1; [9]) of the same compound?
The value was 206 ± 30 Hz.

What about the “Dwell time closed state” value (RyR1; [9]) of the same compound?
Its value is 0.55 ± 0.07 ms.

What about the “Dwell time open state” value (RyR1; [9]) of the same compound?
The value was 25.12 ± 1.52 ms.

And the “Po (+30 mV)” value (RyR1; [9])?
Its value is 0.92 ± 0.10.

And the “Closed- maximally opened transitions (Hz)” value (RyR1; [10])?
The value was 750 ± 55 Hz.

And the “Dwell time closed state” value (RyR1; [10])?
Its value is 2.22 ± 0.15 ms.

What about the “Dwell time open state” value (RyR1; [10]) of the same compound?
The value was 1.44 ± 0.05 ms.

What about the “Po (+30 mV)” value (RyR1; [10]) of the same compound?
Its value is 0.60 ± 0.04.

And the “Closed- maximally opened transitions (Hz)” value (RyR1; [11])?
The value was 142 ±20 Hz.

What about the “Dwell time closed state” value (RyR1; [11]) of the same compound?
Its value is 5.65 ± 0.06 ms.

What about the “Dwell time open state” value (RyR1; [11]) of the same compound?
The value was 0.33 ± 0.01 ms.

What about the “Po (+30 mV)” value (RyR1; [11]) of the same compound?
Its value is 0.11 ± 0.01.

What about the “Closed- maximally opened transitions (Hz)” value (RyR1; [12]) of the same compound?
Its value is 225 ±16 Hz.

What about the “Dwell time closed state” value (RyR1; [12]) of the same compound?
Its value is 0.43 ± 0.05 ms.

What about the “Dwell time open state” value (RyR1; [12]) of the same compound?
The value was 5.70 ± 0.20 ms.

And the “Po (+30 mV)” value (RyR1; [12])?
The value was 0.82 ± 0.04.

What about the “effect on Po of RyR1 of concentrations lower than 1.6 μM” value (RyR1; up to five minutes after addition) of the same compound?
The value was “did not elicit changes in the Po”.

What about the “plasma Cmax” value ([3]; 300 mg/day ATV) of the same compound?
The value was ~ 2.2 μg/ml.

What about the Cmax ([3]; 300 mg/day ATV) of the same compound?
Its Cmax is ~3 µM.

And the Cmax ([3]; ATV co-administered with RTV (100 mg/day))?
Its Cmax is ~6 µM.

What about the “fraction dissolved in ethanol/water (1:1)” value [4] of the same compound?
The value was 12.9%.

What about the “stock concentration in ethanol/water (1:1)” value [4] of the same compound?
Its value is 3.2 mM.

What about the “Ca^2+ transient in C2C12 cells pretreated with 50 μM ryanodine for 20 min” value [5] of the same compound?
The value was “attenuated the amplitude”.

What about the “diameter of plasma membrane blebs, times larger than that of EFV” value ([5]; 6 μM) of the same compound?
The value was ~ 1.5 ×.

What about the “effect on plasma membrane of C2C12 cells” value ([5]; 6 μM) of the same compound?
The value was “blebbing”.

What about the “rate of Ca^2+ transient rise, times faster than that of EFV” value ([5]; 6 μM) of the same compound?
Its value is 7.7 ×.

And the “rate of decay of the Ca^2+ transient, times faster than that of EFV” value ([5]; 6 μM)?
The value was 3 x.

What about the “mean peak amplitude of the Ca^2+ transient” value ([5]; 6 μM, antiretroviral-naïve C2C12 myotubes) of the same compound?
The value was 4.4 ± 0.1 f.u.

And the “response to a second dose in previously exposed C2C12 cells” value ([5]; second dose 6 μM)?
The value was “did not elicit a second Ca^2+ transient”.

What about the EC50 [6] of the same compound?
Its EC50 is 14.9 ± 1.4 nM.

What about the IC50 [6] of the same compound?
The IC50 was 6200 ± 800 nM.

What about the Ki [6] of the same compound?
The Ki was 1600 ± 200 nM.

And the “maximum percent enhancement of [^3H]ryanodine binding over control” value ([6]; 6.7 nM [^3H]ryanodine, 2 hr at 37°C)?
Its value is 40.5 ± 5.2%.

And the “concentrations that enhanced [^3H]ryanodine binding to RyR1” value ([6]; 2 hr at 37°C)?
The value was 1 to 20 nM.
